The record followed here is US9018214B2, “Bicyclic heterocycle compounds and their uses in therapy” (Astex Therapeutics Limited, priority 2011, dated 2015).

The target in test [1] is BIR3 domain of human XIAP (residues 252-350) (Homo sapiens (Human), UniProt P98170). Briefly: XIAP in vitro competitive displacement binding assay (fluorescence polarization). Particulars: for inhibition at 0.04 µM: 1 h, read-out: IC50 or PI Xiap: PI; for IC50: read-out: IC50 or PI Xiap: IC50. A general note: Fluorescence polarisation rises when a labelled molecule tumbles more slowly, as on binding a larger partner.

Test [2] deals with EVSA-T (human breast carcinoma). Briefly: Anti-proliferative activity, Alamar Blue assay, EVSA-T. It is filed as cell-based. Particulars: Homo sapiens. (Alamar Blue is a resazurin reagent that responds to reducing activity.)
For test [3], the target named is BIR3 domain of human cIAP-1 (residues 267-363) (Homo sapiens (Human), UniProt Q13490). In words: cIAP-1 in vitro competitive displacement binding assay (fluorescence polarization; Probe A AVPIK(5&6FAM)-amide or Probe B AbuRPFK(5&6FAM)-amide).
Test [4] deals with MDA-MB-231 (human breast carcinoma). Briefly: Anti-proliferative activity, Alamar Blue assay, MDA-MB-231. It counts as cell-based. Particulars: read-out: EC50, inhibition of cell growth.
Where [5] appears, read: EVSA-T cell line, 72 hours, Alamar Blue, read-out: EC50, inhibition of cell growth.
The mark [6] stands for this setting: EVSA-T, 72 hours, Alamar Blue, read-out: EVSA-T prolif (EC50).
Where [7] appears, read: MDA-MB-231 cell line, 72 hours, Alamar Blue.
Setting [8] is: Probe B AbuRPFK(5&6FAM)-amide, read-out: IC50 or PI cIAP1: IC50.
[9] abbreviates: EVSA-T, 72 h, read-out: EC50, inhibition of cell growth.
Setting [10] is: EVSA-T, 72 h, read-out: EVSA-T prolif (EC50).
The mark [11] stands for this setting: read-out: IC50 or PI cIAP1: IC50.

Counter-ions that a name gives are not always drawn. Like-named read-outs stand apart in the source and are kept apart here.

`C[C@@H]1CN(CC(=O)N2CC(C)(C)c3cnc(Oc4ccccc4Cl)cc32)[C@@H](CN2CCCC2=O)CN1` [Example 182, 1-{[(2R,5R)-1-{2-[6-(2-Chlorophenoxy)-3,3-dimethyl-1H,2H,3H-pyrrolo[3,2-c]pyridin-1-yl]-2-oxoethyl}-5-methylpiperazin-2-yl]methyl}pyrrolidin-2-one hydrochloride]: in test [1] (@ 0.04 μM), the inhibition at 0.04 µM was 73%. Besides, the EC50 (commonly the midpoint of the concentration-response curve) was under 10000 nM in test [2] (setting [5]), 67 nM in test [2] (setting [6]) and under 10000 nM in test [4] (setting [7]). For the same compound, the inhibition at […] in test [3] (3 h, Probe B, @ 0.012 μM, read-out: IC50 or PI cIAP1: PI) stood at 62%.

Regarding `COC[C@H]1CN[C@H](C)CN1CC(=O)N1CC(C)(c2ccccn2)c2ccc(Cc3ccccc3)cc21` (stereo partly drawn) [Example 144, 1-[6-Benzyl-3-methyl-3-(pyridin-2-yl)-2,3-dihydro-1H-indol-1-yl]-2-[(2R,5R)-2-(methoxymethyl)-5-methylpiperazin-1-yl]ethan-1-one hydrochloride], the IC50 – broadly, the midpoint of a concentration-inhibition curve – is 240 nM in test [1] and 12 nM in test [3] (setting [8]). For the same compound, the EC50 is 730 nM in test [2] (setting [6]) and under 10000 nM in test [4] (setting [7]).

Consider `C[C@@H]1CN(CC(=O)N2CC(C)(C)c3cnc(Cc4ccccc4)cc32)[C@@H](C(F)F)CN1` [Example 122, 1-{6-Benzyl-3,3-dimethyl-1H,2H,3H-pyrrolo[3,2-c]pyridin-1-yl}-2-[(2R,5R)-2-(difluoromethyl)-5-methylpiperazin-1-yl]ethan-1-one hydrochloride], for which the figures for the half-inhibitory concentration (IC50) in test [1] and in test [3] (setting [8]) were 220 nM and 29 nM, respectively. The values for the EC50 in test [2] (setting [6]) and in test [4] (setting [7]) were 290 nM and under 10000 nM, respectively.

In the case of `CC[C@H]1CN[C@H](C)CN1CC(=O)N1CC(C)(C)c2cc(F)c(S(=O)(=O)c3ccccc3)cc21` [Example 48, 1-(6-Benzenesulfonyl-5-fluoro-3,3-dimethyl-2,3-dihydro-indol-1-yl)-2-((2S,5R)-2-ethyl-5-methyl-piperazin-1-yl)-ethanone dihydrochloride salt], the figures for the 50% inhibitory concentration (IC50) in test [1], in test [3] and in test [3] (setting [11]) were 97 nM, under 1000 nM and 64 nM, respectively. Besides, the concentration giving a half-maximal response (EC50) is under 10000 nM in test [2] (setting [9]); 250 nM in test [2] (setting [10]); under 10000 nM in test [4] (MDA-MB-231, 72 h).

For `COC[C@H]1CN[C@H](C)CN1CC(=O)N1CC(C)(C)c2cnc(Cc3ccc(Cl)cc3)cc21` [Example 82, 1-[6-(4-Chloro-benzyl)-3,3-dimethyl-2,3-dihydro-pyrrolo[3,2-c]pyridin-1-yl]-2-((2R,5R)-2-methoxymethyl-5-methyl-piperazin-1-yl)-ethanone], the half-inhibitory concentration (IC50) in test [1] came out at 220 nM. For the same compound, the figures for the EC50 in test [2] (setting [5]), in test [2] (setting [6]) and in test [4] (setting [7]) were under 10000 nM, 34 nM and under 10000 nM, respectively. In addition, in test [3] (3 h, Probe B, @ 0.01 μM, read-out: IC50 or PI cIAP1: PI), the inhibition at 0.01 µM was 86%.

Take `C[C@@H]1CN(CC(=O)N2CC(C)(C)c3cnc(Cc4ccccc4)cc32)[C@@H](CF)CN1` [Example 121, 1-{6-Benzyl-3,3-dimethyl-1H,2H,3H-pyrrolo[3,2-c]pyridin-1-yl}-2-[(2R,5R)-2-(fluoromethyl)-5-methylpiperazin-1-yl]ethan-1-one hydrochloride]: the 50% inhibitory concentration (IC50) turned out to be 190 nM in test [1] and 21 nM in test [3] (setting [8]). In addition, the EC50 in test [2] (setting [6]) is 380 nM; in test [4] (setting [7]), under 10000 nM.

`COC[C@H]1CN[C@H](C)CN1CC(=O)N1CC(C)(C)c2cc(=O)n(Cc3ccccc3)cc21` [Example 67, 6-Benzyl-1-[2-((2R,5R)-2-methoxymethyl-5-methyl-piperazin-1-yl)-acetyl]-3,3-dimethyl-1,2,3,6-tetrahydro-pyrrolo[2,3-c]pyridin-5-one hydrochloride salt]: the IC50 is 310 nM in test [1], under 1000 nM in test [3] and 17 nM in test [3] (setting [8]). Besides, the EC50 in test [2] (setting [5]) was under 10000 nM; in test [2] (setting [6]), 350 nM; in test [4] (setting [7]) it was under 10000 nM.

As for `C[C@@H]1CN(CC(=O)N2CC(C)(C)c3cc(F)c(S(=O)(=O)c4ccccc4)cc32)CCN1` [Example 47, 1-(6-Benzenesulfonyl-5-fluoro-3,3-dimethyl-2,3-dihydro-indol-1-yl)-2-((R)-3-methyl-piperazin-1-yl)-ethanone dihydrochloride salt], the values for the half-maximal inhibitory concentration (IC50) in test [1], in test [3] and in test [3] (setting [11]) were 270 nM, under 1000 nM and 390 nM, respectively. In addition, the EC50 in test [2] (setting [9]) was under 10000 nM; in test [2] (setting [10]), 1800 nM; in test [4] (MDA-MB-231, 72 h), under 10000 nM.

Turning to `COC[C@H]1CN[C@H](C)CN1CC(=O)N1CC(C)(C)c2ccc(S(=O)(=O)CC(C)C)cc21` [Example 64, 1-[3,3-Dimethyl-6-(2-methyl-propane-1-sulfonyl)-2,3-dihydro-indol-1-yl]-2-((2R,5R)-2-methoxymethyl-5-methyl-piperazin-1-yl)-ethanone dihydrochloride salt], the IC50 in test [1] was found to be 270 nM; in test [3] (setting [11]), 140 nM. Also, the concentration giving a half-maximal response (EC50) is 1000 nM in test [2] (setting [10]) and under 10000 nM in test [4] (MDA-MB-231, 72 h).

`C[C@@H]1CN(CC(=O)N2CC(C)(C)c3cnc(Oc4ccccc4Cl)cc32)[C@@H](C(=O)N(C)C)CN1` [Example 151, (2R,5R)-1-{2-[6-(2-Chlorophenoxy)-3,3-dimethyl-1H,2H,3H-pyrrolo[3,2-c]pyridin-1-yl]-2-oxoethyl}-N,N,5-trimethylpiperazine-2-carboxamide dihydrochloride]: the inhibition at 0.04 µM in test [1] came out at 48%. In addition, the EC50 in test [2] (setting [10]) is 590 nM; in test [4] (MDA-MB-231, 72 h), under 10000 nM. Moreover, in test [3] (setting [11]), the 50% inhibitory concentration (IC50) amounted to 19 nM.

In the case of `COC[C@H]1CN[C@H](C)CN1CC(=O)N1CC(C)(C)c2cnc(Oc3ccccc3C)cc21` [Example 83, 1-(3,3-Dimethyl-6-o-tolyloxy-2,3-dihydro-pyrrolo[3,2-c]pyridin-1-yl)-2-((2R,5R)-2-methoxymethyl-5-methyl-piperazin-1-yl)-ethanone hydrochloride salt], the IC50 is 350 nM in test [1], under 1000 nM in test [3] and 110 nM in test [3] (setting [8]). In addition, the concentration giving a half-maximal response (EC50) in test [2] (setting [5]) is under 10000 nM; in test [2] (setting [6]) it was 2000 nM; in test [4] (setting [7]), under 10000 nM.
